Test results from patent US20230265151A1, “GIP/GLP1 CO-AGONIST COMPOUNDS” (priority 2020, published 2023).
Like-named read-outs stand apart in the source and are kept apart here.

How the values were obtained:
Assay type in all cases: cell-based
hGCGR = biological target: T1, hGCGR (Homo sapiens, UniProt P47871); experiment: Functional cAMP formation (HTRF) in HEK-293 clonal cells expressing hGCGR, 0.1% bovine casein, without or with 1.0% human serum albumin; details: cAMP, 37° C.
T1 construct: expressed in transfected cells
T1 sequence (P47871 26-477): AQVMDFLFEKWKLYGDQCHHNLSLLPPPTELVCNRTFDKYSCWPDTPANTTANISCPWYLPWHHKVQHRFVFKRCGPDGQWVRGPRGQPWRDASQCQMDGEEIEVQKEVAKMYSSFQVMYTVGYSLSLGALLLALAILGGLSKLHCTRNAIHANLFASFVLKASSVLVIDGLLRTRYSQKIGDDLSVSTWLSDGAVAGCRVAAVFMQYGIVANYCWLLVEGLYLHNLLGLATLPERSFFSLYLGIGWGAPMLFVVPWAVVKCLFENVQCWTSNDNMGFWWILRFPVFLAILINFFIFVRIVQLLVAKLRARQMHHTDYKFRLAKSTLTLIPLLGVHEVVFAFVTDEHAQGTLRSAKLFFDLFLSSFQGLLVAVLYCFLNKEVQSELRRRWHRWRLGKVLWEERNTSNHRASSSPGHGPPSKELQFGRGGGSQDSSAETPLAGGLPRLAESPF
Summary of the method: (§1)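 Readings of the HTRF 665/620 nm ratio, which falls as cAMP rises, were converted to nM cAMP using a standard curve after 30 min peptide exposure at 37° C.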

hGLP-1R = hGLP-1R (Homo sapiens, UniProt P43220); experiment: Functional cAMP formation (HTRF) in HEK-293 clonal cells expressing hGLP-1R, 0.1% bovine casein, without or with 1.0% human serum albumin; design: expressed in transfected cells; details: for Emax: percent of maximal response to GLP-1(7-36)NH2; for EC50: cAMP
Chain of hGLP-1R (P43220 24-463): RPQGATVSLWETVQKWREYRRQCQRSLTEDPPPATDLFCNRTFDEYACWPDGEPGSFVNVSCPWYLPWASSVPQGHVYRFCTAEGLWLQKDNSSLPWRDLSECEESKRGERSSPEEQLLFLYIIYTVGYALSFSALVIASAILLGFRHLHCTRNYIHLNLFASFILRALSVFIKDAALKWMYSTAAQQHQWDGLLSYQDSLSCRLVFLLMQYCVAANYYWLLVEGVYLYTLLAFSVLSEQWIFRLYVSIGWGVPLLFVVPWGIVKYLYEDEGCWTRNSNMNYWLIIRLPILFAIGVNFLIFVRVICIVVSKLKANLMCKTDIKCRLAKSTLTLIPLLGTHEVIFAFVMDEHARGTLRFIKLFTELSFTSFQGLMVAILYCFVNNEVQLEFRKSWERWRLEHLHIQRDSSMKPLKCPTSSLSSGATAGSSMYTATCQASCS
Summary of the method: as §1

hGIPR = biological target: T2, hGIPR (Homo sapiens, UniProt P48546); experiment: Functional cAMP formation (HTRF) in HEK-293 clonal cells expressing hGIPR, 0.1% bovine casein, without or with 1.0% human serum albumin; details: for Emax: percent of maximal response to GIP(1-42)NH2; for EC50: cAMP
T2 construct: expressed in transfected cells
T2 sequence (P48546 22-466): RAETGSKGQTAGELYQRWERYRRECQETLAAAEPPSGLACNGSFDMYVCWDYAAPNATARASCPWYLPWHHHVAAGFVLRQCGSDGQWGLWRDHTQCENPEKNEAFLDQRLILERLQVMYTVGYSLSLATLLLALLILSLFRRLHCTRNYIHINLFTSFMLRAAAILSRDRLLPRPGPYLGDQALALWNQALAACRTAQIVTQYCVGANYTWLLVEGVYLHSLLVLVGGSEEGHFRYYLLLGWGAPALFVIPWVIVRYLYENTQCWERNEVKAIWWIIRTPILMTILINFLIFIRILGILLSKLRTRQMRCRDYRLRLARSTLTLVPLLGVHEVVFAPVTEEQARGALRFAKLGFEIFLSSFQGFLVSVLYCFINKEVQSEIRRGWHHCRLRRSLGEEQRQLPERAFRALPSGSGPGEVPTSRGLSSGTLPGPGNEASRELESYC
Summary of the method: as §1

[1] = 0.1% bovine casein (no human serum albumin), geometric mean, read-out: hGCGR EC50, nM (SEM, n)
[2] = 0.1% bovine casein and 1.0% human serum albumin, geometric mean (SEM, n), read-out: hGCGR EC50, nM (SEM, n)
[3] = HEK293, cAMP, 37° C., 0.1% bovine casein and 1.0% human serum albumin, read-out: hGLP-1R Emax, % ± SEM
[4] = HEK293, cAMP, 37° C., 0.1% bovine casein, arithmetic mean, read-out: hGLP-1R Emax, % ± SEM
[5] = 37° C., 0.1% bovine casein (no human serum albumin), geometric mean, read-out: hGLP-1R EC50, nM (SEM, n)
[6] = HEK293, cAMP, 37° C., 0.1% bovine casein and 1.0% human serum albumin, read-out: hGIPR Emax, % ± SEM
[7] = 37° C., 0.1% bovine casein (no human serum albumin), geometric mean, read-out: hGIPR EC50, nM (SEM, n)

CC[C@H](C)[C@H](NC(=O)[C@H](CC(C)C)NC(=O)[C@](C)(Cc1ccc(O)cc1)NC(=O)[C@H](CCCCNC(=O)CCOCCOCCOCCOCCOCCNC(=O)CC[C@H](NC(=O)CCCCCCCCCCCCC(=O)O)C(=O)O)NC(=O)[C@@H](NC(=O)[C@H](Cc1ccccc1)NC(=O)[C@H](CCCN)NC(=O)C(C)(C)NC(=O)[C@H](CCC(N)=O)NC(=O)[C@H](C)NC(=O)[C@H](CCC(N)=O)NC(=O)[C@H](CCCN)NC(=O)[C@H](CC(=O)O)NC(=O)[C@H](CC(C)C)NC(=O)[C@](C)(CC(C)C)NC(=O)[C@@H](NC(=O)C(C)(C)NC(=O)[C@H](Cc1ccncc1)NC(=O)[C@H](CC(=O)O)NC(=O)[C@H](CO)NC(=O)[C@@H](NC(=O)[C@](C)(Cc1ccccc1F)NC(=O)[C@@H](NC(=O)CNC(=O)[C@H](CCC(=O)O)NC(=O)C(C)(C)NC(=O)[C@@H](N)Cc1ccc(O)cc1)[C@@H](C)O)[C@@H](C)O)[C@@H](C)CC)[C@@H](C)CC)C(=O)N[C@@H](CCCCNC(=O)CCOCCOCCOCCOCCOCCNC(=O)CC[C@H](NC(=O)CCCCCCCCCCCCC(=O)O)C(=O)O)C(=O)NCC(=O)NCC(=O)N1CCC[C@H]1C(=O)N[C@@H](CO)C(=O)N[C@@H](CO)C(=O)NCC(=O)N[C@@H](C)C(=O)N1CCC[C@H]1C(=O)N1CCC[C@H]1C(=O)N1CCC[C@H]1C(=O)N[C@@H](CO)C(N)=O [Example 467]
EC50 (hGCGR; [1]): > 10100 nM | EC50 (hGCGR; [2]): > 10100 nM | Emax (hGLP-1R; [3]): 97.9% | Emax (hGLP-1R; [4]): 110% | EC50 (hGLP-1R; [5]): 0.131 nM | Emax (hGIPR; [6]): 88.4% | EC50 (hGIPR; [7]): 0.0113 nM | EC50 (hGIPR; 37° C., 0.1% bovine casein and 1.0% human serum albumin, geometric mean (SEM, n), read-out: hGIPR EC50, nM (SEM, n)): 0.35 nM

CC[C@H](C)[C@H](NC(=O)[C@H](CC(C)C)NC(=O)[C@](C)(Cc1ccc(O)cc1)NC(=O)[C@H](CCCCNC(=O)CCOCCOCCOCCOCCOCCNC(=O)CC[C@H](NC(=O)CCCCCCCCCOc1ccc(C(=O)O)cc1)C(=O)O)NC(=O)[C@@H](NC(=O)[C@H](Cc1ccccc1)NC(=O)[C@H](CCCN)NC(=O)C(C)(C)NC(=O)[C@H](CCC(N)=O)NC(=O)[C@H](C)NC(=O)[C@H](CCC(N)=O)NC(=O)[C@H](CCCN)NC(=O)[C@H](CC(=O)O)NC(=O)[C@H](CC(C)C)NC(=O)[C@](C)(CC(C)C)NC(=O)[C@@H](NC(=O)C(C)(C)NC(=O)[C@H](Cc1ccncc1)NC(=O)[C@H](CC(=O)O)NC(=O)[C@H](CO)NC(=O)[C@@H](NC(=O)[C@](C)(Cc1ccccc1F)NC(=O)[C@@H](NC(=O)CNC(=O)[C@H](CCC(=O)O)NC(=O)C(C)(C)NC(=O)[C@@H](N)Cc1ccc(O)cc1)[C@@H](C)O)[C@@H](C)O)[C@@H](C)CC)[C@@H](C)CC)C(=O)N[C@@H](CCCCNC(=O)CCOCCOCCOCCOCCOCCNC(=O)CC[C@H](NC(=O)CCCCCCCCCOc1ccc(C(=O)O)cc1)C(=O)O)C(=O)NCC(=O)NCC(=O)N1CCC[C@H]1C(=O)N[C@@H](CO)C(=O)N[C@@H](CO)C(=O)NCC(=O)N[C@@H](C)C(=O)N1CCC[C@H]1C(=O)N1CCC[C@H]1C(=O)N1CCC[C@H]1C(=O)N[C@@H](CO)C(N)=O [Example 469]
EC50 (hGCGR; hGCGR EC50, nM (SEM, n), 0.1% bovine casein (no human serum albumin), geometric mean): > 9950 nM | EC50 (hGCGR; hGCGR EC50, nM (SEM, n), 0.1% bovine casein and 1.0% human serum albumin, geometric mean (SEM, n)): > 9950 nM | Emax (hGLP-1R; HEK293, read-out: hGLP-1R Emax, % ± SEM, cAMP, 37° C., 0.1% bovine casein and 1.0% human serum albumin): 93.8% | Emax (hGLP-1R; HEK293, read-out: hGLP-1R Emax, % ± SEM, cAMP, 37° C., 0.1% bovine casein, arithmetic mean): 111% | EC50 (hGLP-1R; hGLP-1R EC50, nM (SEM, n), 37° C., 0.1% bovine casein (no human serum albumin), geometric mean): 0.161 nM | EC50 (hGLP-1R; hGLP-1R EC50, nM (SEM, n), 37° C., 0.1% bovine casein and 1.0% human serum albumin, geometric mean (SEM, n)): 2.33 nM | Emax (hGIPR; HEK293, read-out: hGIPR Emax, % ± SEM, cAMP, 37° C., 0.1% bovine casein and 1.0% human serum albumin): 82.1% | EC50 (hGIPR; hGIPR EC50, nM (SEM, n), 37° C., 0.1% bovine casein (no human serum albumin), geometric mean): 0.0121 nM

CC[C@H](C)[C@H](NC(=O)[C@H](CC(C)C)NC(=O)[C@](C)(Cc1ccc(O)cc1)NC(=O)[C@H](CCCCNC(=O)COCCOCCNC(=O)COCCOCCNC(=O)[C@H]1CC[C@H](CNC(=O)CC[C@H](NC(=O)CCCCCCCCCCCCC(=O)O)C(=O)O)CC1)NC(=O)[C@@H](NC(=O)[C@H](Cc1ccccc1)NC(=O)[C@H](CCCN)NC(=O)C(C)(C)NC(=O)[C@H](CCC(N)=O)NC(=O)[C@H](C)NC(=O)[C@H](CCC(N)=O)NC(=O)[C@H](CCCN)NC(=O)[C@H](CC(=O)O)NC(=O)[C@H](CC(C)C)NC(=O)[C@](C)(CC(C)C)NC(=O)[C@@H](NC(=O)C(C)(C)NC(=O)[C@H](Cc1ccncc1)NC(=O)[C@H](CC(=O)O)NC(=O)[C@H](CO)NC(=O)[C@@H](NC(=O)[C@](C)(Cc1ccccc1F)NC(=O)[C@@H](NC(=O)CNC(=O)[C@H](CCC(=O)O)NC(=O)C(C)(C)NC(=O)[C@@H](N)Cc1ccc(O)cc1)[C@@H](C)O)[C@@H](C)O)[C@@H](C)CC)[C@@H](C)CC)C(=O)N[C@@H](CCCCNC(=O)COCCOCCNC(=O)COCCOCCNC(=O)[C@H]1CC[C@H](CNC(=O)CC[C@H](NC(=O)CCCCCCCCCCCCC(=O)O)C(=O)O)CC1)C(=O)NCC(=O)NCC(=O)N1CCC[C@H]1C(=O)N[C@@H](CO)C(=O)N[C@@H](CO)C(=O)NCC(=O)N[C@@H](C)C(=O)N1CCC[C@H]1C(=O)N1CCC[C@H]1C(=O)N1CCC[C@H]1C(=O)N[C@@H](CO)C(N)=O [Example 470]
EC50 (hGCGR; [1]): > 9950 nM | EC50 (hGCGR; [2]): > 9950 nM | Emax (hGLP-1R; [3]): 113% | Emax (hGLP-1R; [4]): 112% | EC50 (hGLP-1R; [5]): 0.127 nM | Emax (hGIPR; [6]): 93.9% | EC50 (hGIPR; [7]): 0.0103 nM

CC[C@H](C)[C@H](NC(=O)[C@H](CCCN)NC(=O)[C@H](CC(=O)O)NC(=O)[C@H](CC(C)C)NC(=O)[C@](C)(CC(C)C)NC(=O)[C@@H](NC(=O)C(C)(C)NC(=O)[C@H](Cc1ccc(O)cc1)NC(=O)[C@H](CC(=O)O)NC(=O)[C@H](CO)NC(=O)[C@@H](NC(=O)[C@](C)(Cc1ccccc1F)NC(=O)[C@@H](NC(=O)CNC(=O)[C@H](CCC(=O)O)NC(=O)C(C)(C)NC(=O)[C@@H](N)Cc1ccc(O)cc1)[C@@H](C)O)[C@@H](C)O)[C@@H](C)CC)C(=O)N[C@@H](C)C(=O)N[C@@H](CCC(N)=O)C(=O)NC(C)(C)C(=O)N[C@@H](CCCN)C(=O)N[C@@H](Cc1ccccc1)C(=O)N[C@H](C(=O)N[C@@H](CCCCNC(=O)COCCOCCNC(=O)COCCOCCNC(=O)COCCOCCNC(=O)CC[C@H](NC(=O)CCCCCCCCCCCCC(=O)O)C(=O)O)C(=O)N[C@@](C)(Cc1ccc(O)cc1)C(=O)N[C@@H](CC(C)C)C(=O)N[C@H](C(=O)N[C@@H](CCCCNC(=O)COCCOCCNC(=O)COCCOCCNC(=O)COCCOCCNC(=O)CC[C@H](NC(=O)CCCCCCCCCCCCC(=O)O)C(=O)O)C(=O)NCC(=O)NCC(=O)N1CCC[C@H]1C(=O)N[C@@H](CO)C(=O)N[C@@H](CO)C(=O)NCC(=O)N[C@@H](C)C(=O)N1CCC[C@H]1C(=O)N1CCC[C@H]1C(=O)N1CCC[C@H]1C(=O)N[C@@H](CO)C(N)=O)[C@@H](C)CC)[C@@H](C)CC [Example 478]
EC50 (hGCGR; [1]): > 9950 nM | EC50 (hGCGR; [2]): > 9950 nM | Emax (hGLP-1R; [4]): 109% | EC50 (hGLP-1R; [5]): 0.322 nM | EC50 (hGLP-1R; 37° C., 0.1% bovine casein and 1.0% human serum albumin, geometric mean (SEM, n), read-out: hGLP-1R EC50, nM (SEM, n)): 6.16 nM | Emax (hGIPR; [6]): 84% | Emax (hGIPR; HEK293, cAMP, 37° C., 0.1% bovine casein, arithmetic mean, read-out: hGIPR Emax, % ± SEM): 93.9% | EC50 (hGIPR; [7]): 0.0139 nM
